Experimental data: ChEMBL document CHEMBL2016457, “Discovery of potent and orally bioavailable 17β-hydroxysteroid dehydrogenase type 3 inhibitors” (Bioorg Med Chem, 2012)

Legend:
Rattus norvegicus [1] = assay: AUC (0 to 24 hrs) in Sprague-Dawley rat assessed as 5-(3,5-Dichloro-4-hydroxybenzylidene)-3-(4-methoxyphenyl)-2-thioxo-1,3-oxazolidin-4-one concentration at 10 mg/kg, po; format: ADME, organism-based, Plasma; set-up: time < 24 hr, dose 10 mg/kg, route oral; conditions: in vivo
Rattus norvegicus [2] = assay: Inhibition of LH-RH agonist leuprorelin-induced testosterone steroidogenesis in Sprague-Dawley rat at 100 mg/kg, po administered 1 hr prior leuprorelin-induction measured after 240 mins by GC/MS analysis relative to control; set-up: scale not given: the % may be the effect or the level left
[3] = molecular target: T1, 17-beta-hydroxysteroid dehydrogenase type 3 (Homo sapiens, UniProt P37058)
T1 sequence (P37058 whole entry): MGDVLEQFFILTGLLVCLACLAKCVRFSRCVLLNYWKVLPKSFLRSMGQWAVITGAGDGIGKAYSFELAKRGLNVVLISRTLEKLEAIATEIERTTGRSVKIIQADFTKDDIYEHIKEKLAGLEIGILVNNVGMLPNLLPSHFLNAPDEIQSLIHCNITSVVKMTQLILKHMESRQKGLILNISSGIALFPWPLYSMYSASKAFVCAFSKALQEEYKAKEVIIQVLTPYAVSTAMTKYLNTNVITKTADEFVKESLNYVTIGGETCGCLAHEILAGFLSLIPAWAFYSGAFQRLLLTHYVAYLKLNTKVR
Description: Inhibition of human recombinant 17-beta-HSD3 expressed in human HeLa cells using androstenedione as substrate preincubated for 30 mins prior substrate addition measured after 120 mins by spectrophotometry

[4] = Tmax in Sprague-Dawley rat at 10 mg/kg, po; format: ADME, organism-based; set-up: dose 10 mg/kg, route oral; conditions: in vivo
[5] = Oral bioavailability in Sprague-Dawley rat at 10 mg/kg; format: ADME, organism-based; conditions: in vivo

Compound	AUC (Rattus norvegicus [1])	Activity (Rattus norvegicus [2])	IC50 [3]	Tmax [4]	bioavailability [5]
COc1ccc(N2C(=O)/C(=C/c3cc(Cl)c(OP(=O)(O)O)c(Cl)c3)OC2=S)cc1	18800 ng·h/mL	10%	–	–	–
COc1ccc(N2C(=O)/C(=C/c3cc(Cl)c(O)c(Cl)c3)OC2=S)cc1	–	–	12 nM	1 h	5.5%
